{"source": "patent US10906938B2", "about": "“Cell epitopes and combination of cell epitopes for use in the immunotherapy of myeloma and other cancers” (Immatics Biotechnologies GmbH, priority 2015, dated 2021)", "key": {"U266 cells": {"tested_on": "U266 cells", "test": "HLA class I ligand presentation upon carfilzomib treatment on U266 cells (LC-MS/MS)", "format": "cell-based, human", "design": "key to modulation upon carfilzomib-treatment 24 #1 / modulation upon carfilzomib-treatment 24 #2 / modulation upon carfilzomib-treatment 24 #3 / modulation upon carfilzomib-treatment 48 #1 / modulation upon carfilzomib-treatment 48 #2 / modulation upon carfilzomib-treatment 48 #3: −1: significantly down-modulated; 0: not signifcant/not detected; 1: significantly up-modulated", "settings": "for modulation upon carfilzomib-treatment 24 #1 / modulation upon carfilzomib-treatment 24 #2 / modulation upon carfilzomib-treatment 24 #3 / modulation upon carfilzomib-treatment 48 #1 / modulation upon carfilzomib-treatment 48 #2 / modulation upon carfilzomib-treatment 48 #3: U266 cells, vs mock-treated controls; for modulation upon carfilzomib-treatment 24 #1 / modulation upon carfilzomib-treatment 24 #2 / modulation upon carfilzomib-treatment 24 #3: 24 h after carfilzomib treatment (100 nM, 1 h); for modulation upon carfilzomib-treatment 24 #1 / modulation upon carfilzomib-treatment 48 #1: biological replicate #1; for modulation upon carfilzomib-treatment 24 #2 / modulation upon carfilzomib-treatment 48 #2: biological replicate #2; for modulation upon carfilzomib-treatment 24 #3 / modulation upon carfilzomib-treatment 48 #3: biological replicate #3; for modulation upon carfilzomib-treatment 48 #1 / modulation upon carfilzomib-treatment 48 #2 / modulation upon carfilzomib-treatment 48 #3: 48 h after carfilzomib treatment (100 nM, 1 h)", "description": "(§1) HLA class I and II molecules were isolated using standard immunoaffinity purification as described using the pan-HLA class I specific mAb W6/32, the pan-HLA class II specific mAb T039 and the HLA-DR specific mAB L243 (produced in house).\n(§2) HLA ligand extracts were analyzed in 5 technical replicates as described previously. In brief, peptide samples were separated by nanoflow HPLC (RSLCnano, ThermoFisher) using a 50 μm×25 cm PepMap RSLC column (Thermo Fisher) and a gradient ranging from 2.4 to 32.0% acetonitrile over the course of 90 min. Eluting peptides were analyzed in an online coupled LTQ Orbitrap XL mass spectrometer (Thermo Fisher) using a top 5 CID (collision induced dissociation) fragmentation method.\n(§3) Data processing was performed as described previously. In brief, the Mascot search engine (Mascot 2.2.04; Matrix Science, London, UK) was implemented to search the human proteome as comprised in the Swiss-Prot database (20,279 reviewed protein sequences, September 2013) without enzymatic restriction. Potential mutated HLA ligands were searched implementing a database containing the human proteome concatenated with proteins containing single amino acid variants (SAVs) listed in the COSMIC database (http://cancer.sanger.ac.uk/cosmic/). Only recurrent SAVs described in 2 or more samples of hematological origin were included. Oxidized methionine was allowed as a dynamic modification. The false discovery rate was estimated using the Percolator algorithm and set to 5%. Peptide lengths were limited to 8-12 amino acids for HLA class I and 12-25 amino acids for HLA class II. Protein inference was disabled, allowing for multiple protein annotations of peptides. HLA annotation was performed using SYFPEITHI [46] or an extended in-house database. Experimental validation of peptide identifications and HLA annotations was performed by mass spectrometric and functional characterization of synthetic peptides for a subset of peptides.\n(§4) The inventors quantitatively assessed HLA class I ligand presentation during proteasome inhibitor therapy. Observed was a considerable plasticity of the HLA class I ligandome after treatment with carfilzomib with 17.9±1.1% of MM.1S ligands and 11.2±0.7% of U266 ligands (mean of three biological replicates ±s.d.) showing significant modulation (fold-change ≥4, Po0.01 after Benjamini-Hochberg correction) at t24 h compared with mock-treated controls. Briefly, Cultured MCLs (MM.1S and U266) and primary myeloma samples were incubated with carfilzomib (100 nM, Kyprolis®, available, e.g., from Onyx Pharmaceuticals, Inc.) as an example for a proteasome inhibitor for a 1-h period, followed by three washes in PBS (Gibco) and recultured for additional 24 or 48 h. Controls were incubated with vehicle control (glucose 5%) for 1 h, followed by identical washing and incubation for 24 or 48 h. Experiments were conducted in three biological replicates where indicated."}, "MM.1S cells": {"tested_on": "MM.1S cells", "test": "HLA class I ligand presentation upon carfilzomib treatment on MM.1S cells (LC-MS/MS)", "format": "cell-based, human", "design": "key to modulation upon carfilzomib-treatment 24 #1 / modulation upon carfilzomib-treatment 24 #2 / modulation upon carfilzomib-treatment 24 #3 / modulation upon carfilzomib-treatment 48 #1 / modulation upon carfilzomib-treatment 48 #2 / modulation upon carfilzomib-treatment 48 #3: −1: significantly down-modulated; 0: not signifcant/not detected; 1: significantly up-modulated", "settings": "for modulation upon carfilzomib-treatment 24 #1 / modulation upon carfilzomib-treatment 24 #2 / modulation upon carfilzomib-treatment 24 #3 / modulation upon carfilzomib-treatment 48 #1 / modulation upon carfilzomib-treatment 48 #2 / modulation upon carfilzomib-treatment 48 #3: MM.1S cells, vs mock-treated controls; for modulation upon carfilzomib-treatment 24 #1 / modulation upon carfilzomib-treatment 24 #2 / modulation upon carfilzomib-treatment 24 #3: 24 h after carfilzomib treatment (100 nM, 1 h); for modulation upon carfilzomib-treatment 24 #1 / modulation upon carfilzomib-treatment 48 #1: biological replicate #1; for modulation upon carfilzomib-treatment 24 #2 / modulation upon carfilzomib-treatment 48 #2: biological replicate #2; for modulation upon carfilzomib-treatment 24 #3 / modulation upon carfilzomib-treatment 48 #3: biological replicate #3; for modulation upon carfilzomib-treatment 48 #1 / modulation upon carfilzomib-treatment 48 #2 / modulation upon carfilzomib-treatment 48 #3: 48 h after carfilzomib treatment (100 nM, 1 h)", "description": "as §1, §2, §3, §4"}, "[1]": {"settings": "carfilzomib 100 nM for 1 h, t24 h vs mock-treated controls, fold-change ≥4, Po0.01 after Benjamini-Hochberg correction, mean of three biological replicates ±s.d."}}}
{"compound": "CC(C)C[C@H](NC(=O)[C@H](CCc1ccccc1)NC(=O)CN1CCOCC1)C(=O)N[C@@H](Cc1ccccc1)C(=O)N[C@@H](CC(C)C)C(=O)[C@@]1(C)CO1", "note": "[carfilzomib, reference compound]", "values": [{"measurement": "U266 ligands showing significant modulation", "setting": "U266 cells; [1]", "value": "11.2±0.7", "unit": "%"}, {"measurement": "MM.1S ligands showing significant modulation", "setting": "MM.1S cells; [1]", "value": "17.9±1.1", "unit": "%"}]}
{"compound": "KPQPRPQTL", "values": [{"measurement": "modulation upon carfilzomib-treatment 24 #1", "setting": "U266 cells", "value": 0}, {"measurement": "modulation upon carfilzomib-treatment 24 #2", "setting": "U266 cells", "value": 0}, {"measurement": "modulation upon carfilzomib-treatment 24 #3", "setting": "U266 cells", "value": 0}, {"measurement": "modulation upon carfilzomib-treatment 48 #1", "setting": "U266 cells", "value": 0}, {"measurement": "modulation upon carfilzomib-treatment 48 #2", "setting": "U266 cells", "value": 0}, {"measurement": "modulation upon carfilzomib-treatment 48 #3", "setting": "U266 cells", "value": 0}, {"measurement": "modulation upon carfilzomib-treatment 24 #1", "setting": "MM.1S cells", "value": 1}, {"measurement": "modulation upon carfilzomib-treatment 24 #2", "setting": "MM.1S cells", "value": 1}, {"measurement": "modulation upon carfilzomib-treatment 24 #3", "setting": "MM.1S cells", "value": 1}, {"measurement": "modulation upon carfilzomib-treatment 48 #1", "setting": "MM.1S cells", "value": 0}, {"measurement": "modulation upon carfilzomib-treatment 48 #2", "setting": "MM.1S cells", "value": 0}, {"measurement": "modulation upon carfilzomib-treatment 48 #3", "setting": "MM.1S cells", "value": 0}]}
{"compound": "APRHPSTNSL", "values": [{"measurement": "modulation upon carfilzomib-treatment 24 #1", "setting": "U266 cells", "value": 0}, {"measurement": "modulation upon carfilzomib-treatment 24 #2", "setting": "U266 cells", "value": 1}, {"measurement": "modulation upon carfilzomib-treatment 24 #3", "setting": "U266 cells", "value": 0}, {"measurement": "modulation upon carfilzomib-treatment 48 #1", "setting": "U266 cells", "value": 1}, {"measurement": "modulation upon carfilzomib-treatment 48 #2", "setting": "U266 cells", "value": 1}, {"measurement": "modulation upon carfilzomib-treatment 48 #3", "setting": "U266 cells", "value": 0}, {"measurement": "modulation upon carfilzomib-treatment 24 #1", "setting": "MM.1S cells", "value": 0}, {"measurement": "modulation upon carfilzomib-treatment 24 #2", "setting": "MM.1S cells", "value": 0}, {"measurement": "modulation upon carfilzomib-treatment 24 #3", "setting": "MM.1S cells", "value": 1}, {"measurement": "modulation upon carfilzomib-treatment 48 #1", "setting": "MM.1S cells", "value": 0}, {"measurement": "modulation upon carfilzomib-treatment 48 #2", "setting": "MM.1S cells", "value": 0}, {"measurement": "modulation upon carfilzomib-treatment 48 #3", "setting": "MM.1S cells", "value": 0}]}
{"compound": "SYLNSVQRL", "values": [{"measurement": "modulation upon carfilzomib-treatment 24 #1", "setting": "MM.1S cells", "value": 0}, {"measurement": "modulation upon carfilzomib-treatment 24 #2", "setting": "MM.1S cells", "value": 0}, {"measurement": "modulation upon carfilzomib-treatment 24 #3", "setting": "MM.1S cells", "value": 0}, {"measurement": "modulation upon carfilzomib-treatment 48 #1", "setting": "MM.1S cells", "value": 0}, {"measurement": "modulation upon carfilzomib-treatment 48 #2", "setting": "MM.1S cells", "value": 0}, {"measurement": "modulation upon carfilzomib-treatment 48 #3", "setting": "MM.1S cells", "value": 0}]}
{"compound": "RYLDLFTSF", "values": [{"measurement": "modulation upon carfilzomib-treatment 24 #1", "setting": "MM.1S cells", "value": "−1"}, {"measurement": "modulation upon carfilzomib-treatment 24 #2", "setting": "MM.1S cells", "value": "−1"}, {"measurement": "modulation upon carfilzomib-treatment 24 #3", "setting": "MM.1S cells", "value": "−1"}, {"measurement": "modulation upon carfilzomib-treatment 48 #1", "setting": "MM.1S cells", "value": 0}, {"measurement": "modulation upon carfilzomib-treatment 48 #2", "setting": "MM.1S cells", "value": "−1"}, {"measurement": "modulation upon carfilzomib-treatment 48 #3", "setting": "MM.1S cells", "value": "−1"}]}
{"compound": "YYLNEIQSF", "values": [{"measurement": "modulation upon carfilzomib-treatment 24 #1", "setting": "MM.1S cells", "value": 0}, {"measurement": "modulation upon carfilzomib-treatment 24 #2", "setting": "MM.1S cells", "value": 0}, {"measurement": "modulation upon carfilzomib-treatment 24 #3", "setting": "MM.1S cells", "value": 0}, {"measurement": "modulation upon carfilzomib-treatment 48 #1", "setting": "MM.1S cells", "value": 0}, {"measurement": "modulation upon carfilzomib-treatment 48 #2", "setting": "MM.1S cells", "value": 0}, {"measurement": "modulation upon carfilzomib-treatment 48 #3", "setting": "MM.1S cells", "value": 0}]}
{"compound": "SPALPGLKL", "values": [{"measurement": "modulation upon carfilzomib-treatment 24 #1", "setting": "MM.1S cells", "value": 0}, {"measurement": "modulation upon carfilzomib-treatment 24 #2", "setting": "MM.1S cells", "value": 0}, {"measurement": "modulation upon carfilzomib-treatment 24 #3", "setting": "MM.1S cells", "value": 0}, {"measurement": "modulation upon carfilzomib-treatment 48 #1", "setting": "MM.1S cells", "value": 0}, {"measurement": "modulation upon carfilzomib-treatment 48 #2", "setting": "MM.1S cells", "value": 0}, {"measurement": "modulation upon carfilzomib-treatment 48 #3", "setting": "MM.1S cells", "value": 0}]}
{"compound": "IPAKPPVSF", "values": [{"measurement": "modulation upon carfilzomib-treatment 24 #1", "setting": "U266 cells", "value": 0}, {"measurement": "modulation upon carfilzomib-treatment 24 #2", "setting": "U266 cells", "value": 0}, {"measurement": "modulation upon carfilzomib-treatment 24 #3", "setting": "U266 cells", "value": 0}, {"measurement": "modulation upon carfilzomib-treatment 48 #1", "setting": "U266 cells", "value": 0}, {"measurement": "modulation upon carfilzomib-treatment 48 #2", "setting": "U266 cells", "value": 0}, {"measurement": "modulation upon carfilzomib-treatment 48 #3", "setting": "U266 cells", "value": 0}, {"measurement": "modulation upon carfilzomib-treatment 24 #1", "setting": "MM.1S cells", "value": 0}, {"measurement": "modulation upon carfilzomib-treatment 24 #2", "setting": "MM.1S cells", "value": 0}, {"measurement": "modulation upon carfilzomib-treatment 24 #3", "setting": "MM.1S cells", "value": 0}, {"measurement": "modulation upon carfilzomib-treatment 48 #1", "setting": "MM.1S cells", "value": 0}, {"measurement": "modulation upon carfilzomib-treatment 48 #2", "setting": "MM.1S cells", "value": 0}, {"measurement": "modulation upon carfilzomib-treatment 48 #3", "setting": "MM.1S cells", "value": 0}]}
{"compound": "FAQIISVALI", "values": [{"measurement": "modulation upon carfilzomib-treatment 24 #1", "setting": "MM.1S cells", "value": 0}, {"measurement": "modulation upon carfilzomib-treatment 24 #2", "setting": "MM.1S cells", "value": 0}, {"measurement": "modulation upon carfilzomib-treatment 24 #3", "setting": "MM.1S cells", "value": 0}, {"measurement": "modulation upon carfilzomib-treatment 48 #1", "setting": "MM.1S cells", "value": 0}, {"measurement": "modulation upon carfilzomib-treatment 48 #2", "setting": "MM.1S cells", "value": 0}, {"measurement": "modulation upon carfilzomib-treatment 48 #3", "setting": "MM.1S cells", "value": 0}]}
